Structures are written as SMILES. Where two headings read alike, the source gives them in different places.

One test concerns the target T1, Human mTOR (FLAG-TOR) (Homo sapiens, UniProt P42345).
T1 construct: FLAG
Put plainly: Human mTOR kinase assay with purified enzyme, DELFIA format. Type of test: biochemical. An outline of the steps:
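Purified FLAG-mTOR in HEPES pH 7.4 buffer with 10 mM MnCl2 was preincubated with inhibitor and reacted 2 h at room temperature with His6-S6K substrate, then stopped with EDTA/EGTA. Phospho-T389 S6K detected by DELFIA with Eu-labelled antibody (40 ng/mL) after plate capture; inhibition computed from signal.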

Test [1] has as its target T2, PI3K (Homo sapiens, UniProt P42336).
T2 construct: PI3 Kinase α IC50; other: PI3 Kinase α; other: PI3 Kinase α isoform, fluorescence polarization
Put plainly: Fluorescence polarization assay for PI3K. The test is classed as biochemical. The following applies: read-out: PI3 Kinase α IC50. Summed up:
(§1)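 PI3K was preincubated with compound (final DMSO 1%), and the reaction was started with PIP2/ATP substrate and run 30–60 min. It was stopped with a detector mix giving 10 nM red probe and 70 nM GST-GRP.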

Test [2] has as its target T3, PI3K (Homo sapiens, UniProt P48736).
T3 construct: PI3 Kinase γ IC50; other: PI3 Kinase γ; other: PI3 Kinase γ isoform, fluorescence polarization
Put plainly: Fluorescence polarization assay for PI3K. The test is classed as biochemical. The note with it: read-out: PI3 Kinase γ IC50. An outline of the steps: as §1
Background: Polarisation of emitted light reports the rotation of a fluorescent probe.

In a further test the test system is prostate line LNCap. In words: In vitro cell culture growth assay (MTS), LNCap. The test is classed as cell-based. The following applies: Homo sapiens, LNCaP, 72 h, LNCap cells, three days after drug treatment. Summed up:
(§2)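 Cells were plated and, one day later, treated with inhibitors. Three days after treatment, viable cell density was measured by MTS dye conversion, read as absorbance at 490 nm. Effects are expressed as percent of control growth versus vehicle-treated cells on the same plate.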

The next test deals with breast line MDA468. Put plainly: In vitro cell culture growth assay (MTS), MDA468. The note with it: Homo sapiens, 72 h, MDA468 cells, three days after drug treatment. The test is classed as cell-based. Summed up:
as §2

[3] abbreviates: purified human mTOR enzyme, DELFIA format.
The mark [4] stands for this setting: PI3 Kinase α isoform, fluorescence polarization.
The mark [5] stands for this setting: PI3 Kinase γ isoform, fluorescence polarization.

T2 sequence (P42336 whole entry, canonical isoform): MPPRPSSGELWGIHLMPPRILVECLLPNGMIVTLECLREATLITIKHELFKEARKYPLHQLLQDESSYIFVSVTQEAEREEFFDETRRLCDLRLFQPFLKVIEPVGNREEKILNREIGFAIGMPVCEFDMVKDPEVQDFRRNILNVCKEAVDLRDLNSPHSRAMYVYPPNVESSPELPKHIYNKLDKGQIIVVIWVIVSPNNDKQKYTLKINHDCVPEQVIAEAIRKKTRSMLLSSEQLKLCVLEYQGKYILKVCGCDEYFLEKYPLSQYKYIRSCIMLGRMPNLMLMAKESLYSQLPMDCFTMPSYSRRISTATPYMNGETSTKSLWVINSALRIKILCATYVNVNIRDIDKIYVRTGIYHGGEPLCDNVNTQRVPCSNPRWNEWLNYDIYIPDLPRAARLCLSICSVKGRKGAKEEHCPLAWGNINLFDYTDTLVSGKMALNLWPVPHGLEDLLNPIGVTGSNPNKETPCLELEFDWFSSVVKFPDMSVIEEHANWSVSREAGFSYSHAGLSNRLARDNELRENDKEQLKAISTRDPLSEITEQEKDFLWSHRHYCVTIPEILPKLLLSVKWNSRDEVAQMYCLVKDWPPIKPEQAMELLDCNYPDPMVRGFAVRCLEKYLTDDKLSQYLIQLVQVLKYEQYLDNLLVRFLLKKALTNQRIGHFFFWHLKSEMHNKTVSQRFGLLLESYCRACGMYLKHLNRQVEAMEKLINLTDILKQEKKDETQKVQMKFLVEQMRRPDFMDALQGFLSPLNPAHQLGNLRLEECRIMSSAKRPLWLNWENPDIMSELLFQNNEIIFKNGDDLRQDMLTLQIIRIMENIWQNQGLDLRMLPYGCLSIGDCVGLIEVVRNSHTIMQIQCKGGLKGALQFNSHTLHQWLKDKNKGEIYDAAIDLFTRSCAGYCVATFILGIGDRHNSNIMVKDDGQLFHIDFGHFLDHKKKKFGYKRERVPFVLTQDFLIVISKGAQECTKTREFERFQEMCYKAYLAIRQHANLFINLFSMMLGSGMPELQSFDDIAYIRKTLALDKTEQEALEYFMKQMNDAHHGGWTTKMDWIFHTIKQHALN
T3 sequence (P48736 whole entry, canonical isoform): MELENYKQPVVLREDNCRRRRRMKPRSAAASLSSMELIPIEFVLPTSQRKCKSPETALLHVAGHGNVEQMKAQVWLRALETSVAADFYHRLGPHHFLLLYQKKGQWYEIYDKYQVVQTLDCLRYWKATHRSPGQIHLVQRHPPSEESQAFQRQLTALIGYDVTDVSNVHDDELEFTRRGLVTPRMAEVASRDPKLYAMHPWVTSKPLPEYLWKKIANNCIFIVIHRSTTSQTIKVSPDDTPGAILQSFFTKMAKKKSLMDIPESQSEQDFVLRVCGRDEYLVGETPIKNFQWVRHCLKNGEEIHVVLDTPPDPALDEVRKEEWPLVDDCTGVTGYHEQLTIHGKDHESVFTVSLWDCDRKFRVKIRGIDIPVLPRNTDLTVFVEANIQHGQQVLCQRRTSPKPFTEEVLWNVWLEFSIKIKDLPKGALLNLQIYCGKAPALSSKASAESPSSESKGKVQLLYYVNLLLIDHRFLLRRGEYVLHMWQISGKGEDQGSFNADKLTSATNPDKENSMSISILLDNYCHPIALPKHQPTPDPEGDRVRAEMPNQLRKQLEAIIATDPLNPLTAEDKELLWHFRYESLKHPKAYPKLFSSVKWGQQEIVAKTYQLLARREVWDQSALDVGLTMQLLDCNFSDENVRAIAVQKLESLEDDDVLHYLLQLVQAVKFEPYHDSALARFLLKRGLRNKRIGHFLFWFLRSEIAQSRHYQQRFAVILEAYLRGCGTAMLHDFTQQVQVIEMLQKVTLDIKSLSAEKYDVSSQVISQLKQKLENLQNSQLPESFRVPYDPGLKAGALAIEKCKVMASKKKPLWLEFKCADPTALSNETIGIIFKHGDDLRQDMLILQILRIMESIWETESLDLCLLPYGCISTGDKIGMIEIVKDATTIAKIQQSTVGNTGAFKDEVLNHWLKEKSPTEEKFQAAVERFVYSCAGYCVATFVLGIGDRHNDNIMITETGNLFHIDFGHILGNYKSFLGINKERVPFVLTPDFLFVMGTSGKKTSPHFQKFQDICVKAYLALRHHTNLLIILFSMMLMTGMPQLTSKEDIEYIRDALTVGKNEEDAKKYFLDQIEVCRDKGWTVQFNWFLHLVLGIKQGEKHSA

Usually IC50 stands for the concentration needed to halve the response being measured. As for `CCn1ncc2c(N3CC4CCC(C3)O4)nc(-c3ccc(NC(=O)NCCN(C)C)cc3)nc21` [Example 175, 1-[2-(dimethylamino)ethyl]-3-{4-[1-ethyl-4-(8-oxa-3-azabicyclo[3.2.1]oct-3-yl)-1H-pyrazolo[3,4-d]pyrimidin-6-yl]phenyl}urea], the half-inhibitory concentration (IC50) against Human mTOR (FLAG-TOR) came to 52 nM; at PI3K [1] (PI3 Kinase α), 836 nM; on PI3K [2] (PI3 Kinase γ) it was 668 nM; in the test with prostate line LNCap, 350 nM; in the test on breast line MDA468 it was 1250 nM.

Turning to `CC(C)n1ncc2c(N3CC4CCC(C3)O4)nc(-c3ccc(NC(=O)Nc4ccncc4)cc3)nc21` [Example 149, 1-{4-[1-isopropyl-4-(8-oxa-3-azabicyclo[3.2.1]oct-3-yl)-1H-pyrazolo[3,4-d]pyrimidin-6-yl]phenyl}-3-pyridin-4-ylurea], the IC50 on Human mTOR (FLAG-TOR) is 0.125 nM; at PI3K [1] (PI3 Kinase α), 40 nM; at PI3K [2] (PI3 Kinase γ), 342 nM; in the test with prostate line LNCap, < 1 nM; in the test on breast line MDA468 it was 4 nM.

As for `CC(C)OC(=O)N1CCC(n2ncc3c(N4CC5CCC(C4)O5)nc(-c4ccc(NC(=O)Nc5ccccc5)cc4)nc32)CC1` [Example 71, isopropyl 4-[4-(8-oxa-3-azabicyclo[3.2.1]oct-3-yl)-6-{4-[(phenylcarbamoyl)amino]phenyl}-1H-pyrazolo[3,4-d]pyrimidin-1-yl]piperidine-1-carboxylate], the IC50 at Human mTOR (FLAG-TOR) stood at 0.62 nM; on PI3K [1] (PI3 Kinase α), 594 nM; at PI3K [2] (PI3 Kinase γ) it was 4910 nM; in the test on prostate line LNCap it was 20 nM; in the test with breast line MDA468, 170 nM.

`CO[C@H]1CC[C@H](n2ncc3c(N4CC5CCC(C4)O5)nc(-c4ccc(NC(=O)Nc5ccc(N6CCN(C)CC6)cc5)cc4)nc32)CC1` (relative stereo) [Example 396, 1-{4-[1-(trans-4-methoxycyclohexyl)-4-(8-oxa-3-azabicyclo[3.2.1]oct-3-yl)-1H-pyrazolo[3,4-d]pyrimidin-6-yl]phenyl}-3-[4-(4-methylpiperazin-1-yl)phenyl]urea]: the IC50 was 0.335 nM against Human mTOR (FLAG-TOR) (setting [3]); 145 nM on PI3K [1] (setting [4]); 1790 nM at PI3K [2] (setting [5]); < 1 nM with prostate line LNCap; 4 nM in the test on breast line MDA468.

`O=C(Nc1ccc(CCO)cc1)Nc1ccc(-c2nc(N3CC4CCC(C3)O4)c3cnn(CCO)c3n2)cc1` [Example 202, 1-{4-[1-(2-hydroxyethyl)-4-(8-oxa-3-azabicyclo[3.2.1]oct-3-yl)-1H-pyrazolo[3,4-d]pyrimidin-6-yl]phenyl}-3-[4-(2-hydroxyethyl)phenyl]urea]: the half-inhibitory concentration (IC50) was found to be 0.215 nM at Human mTOR (FLAG-TOR); 44 nM at PI3K [1] (PI3 Kinase α); 2160 nM on PI3K [2] (PI3 Kinase γ); 1 nM in the test on prostate line LNCap; 4 nM in the test with breast line MDA468.

Regarding `Cn1ncc2c(N3CC4CCC(C3)O4)nc(-c3ccc(NC(=O)NCCF)cc3)nc21` [Example 52, 1-(2-fluoroethyl)-3-{4-[1-methyl-4-(8-oxa-3-azabicyclo[3.2.1]oct-3-yl)-1H-pyrazolo[3,4-d]pyrimidin-6-yl]phenyl}urea], the IC50 was determined as 1 nM against Human mTOR (FLAG-TOR); 877 nM at PI3K [1] (PI3 Kinase α); 9500 nM on PI3K [2] (PI3 Kinase γ); 100 nM in the test with prostate line LNCap; 500 nM in the test on breast line MDA468.

For `CN(C)CCOc1ccc(NC(=O)Nc2ccc(-c3nc(N4C5CCC4COC5)c4cnn(CC(F)(F)F)c4n3)cc2)cc1` [Example 275, 1-{4-[2-(dimethylamino)ethoxy]phenyl}-3-{4-[4-(3-oxa-8-azabicyclo[3.2.1]oct-8-yl)-1-(2,2,2-trifluoroethyl)-1H-pyrazolo[3,4-d]pyrimidin-6-yl]phenyl}urea], the half-maximal inhibitory concentration (IC50) was 0.575 nM on Human mTOR (FLAG-TOR); 275 nM on PI3K [1] (PI3 Kinase α); 3110 nM at PI3K [2] (PI3 Kinase γ); < 1 nM in the test with prostate line LNCap; < 1 nM in the test with breast line MDA468.

Turning to `OCCNc1ccc(-c2nc(N3CC4CCC(C3)O4)c3cnn(C4CCC5(CC4)OCCO5)c3n2)cc1` [Example 132, 2-({4-[1-(1,4-dioxaspiro[4.5]dec-8-yl)-4-(8-oxa-3-azabicyclo[3.2.1]oct-3-yl)-1H-pyrazolo[3,4-d]pyrimidin-6-yl]phenyl}amino)ethanol], the 50% inhibitory concentration (IC50) on Human mTOR (FLAG-TOR) is 15.5 nM; on PI3K [1] (PI3 Kinase α), > 10000 nM; on PI3K [2] (PI3 Kinase γ) it was > 10000 nM; with prostate line LNCap it was 580 nM; in the test on breast line MDA468, 5000 nM.

For the molecule `COC(=O)N1CCC(n2ncc3c(N4C5CCC4COC5)nc(-c4ccc(NC(=O)Nc5ccc(CN(C)C)cc5)cc4)nc32)CC1` [Example 366], the IC50 on Human mTOR (FLAG-TOR) (setting [3]) worked out at 0.795 nM; at PI3K [1] (setting [4]) it was 2070 nM; at PI3K [2] (setting [5]), 1500 nM; with prostate line LNCap it was 10 nM; in the test with breast line MDA468, 20 nM.

As to `COC1CCC(n2ncc3c(N4CC5CCC(C4)O5)nc(-c4ccc(NC(=O)Nc5ccncc5)cc4)nc32)CC1` (stereo not shown) [Example 303, 1-{4-[1-(4-methoxycyclohexyl)-4-(8-oxa-3-azabicyclo[3.2.1]oct-3-yl)-1H-pyrazolo[3,4-d]pyrimidin-6-yl]phenyl}-3-pyridin-4-ylurea], the half-inhibitory concentration (IC50) was 0.145 nM against Human mTOR (FLAG-TOR) (setting [3]); 164 nM at PI3K [1] (setting [4]); 845 nM on PI3K [2] (setting [5]); < 1 nM in the test with prostate line LNCap; 1 nM in the test on breast line MDA468.

Regarding `CN1CCN(c2ccc(NC(=O)Nc3ccc(-c4nc(N5CC6CCC(C5)O6)c5cnn([C@H]6CC[C@@H](O)CC6)c5n4)cc3)cc2)CC1` (relative stereo) [Example 405, 1-{4-[1-(cis-4-hydroxycyclohexyl)-4-(8-oxa-3-azabicyclo[3.2.1]oct-3-yl)-1H-pyrazolo[3,4-d]pyrimidin-6-yl]phenyl}-3-[4-(4-methylpiperazin-1-yl)phenyl]urea], the IC50 against Human mTOR (FLAG-TOR) (setting [3]) is 0.33 nM; at PI3K [1] (setting [4]), 107 nM; at PI3K [2] (setting [5]), 1360 nM; in the test with prostate line LNCap it was < 1 nM; in the test with breast line MDA468, 20 nM.

As for `CNC(=O)Nc1ccc(-c2nc(N3CC4CCC(C3)O4)c3cnn(C4CCN(Cc5cccnc5)CC4)c3n2)cc1` [Example 27, 1-methyl-3-(4-{4-(8-oxa-3-azabicyclo[3.2.1]oct-3-yl)-1-[1-(pyridin-3-ylmethyl)piperidin-4-yl]-1H-pyrazolo[3,4-d]pyrimidin-6-yl}phenyl)urea], the IC50 was 0.47 nM against Human mTOR (FLAG-TOR); 677 nM at PI3K [1] (PI3 Kinase α); > 10000 nM at PI3K [2] (PI3 Kinase γ); 0.8 nM in the test with prostate line LNCap; 27 nM with breast line MDA468.

Consider `COC1CCC(n2ncc3c(N4CC5CCC(C4)O5)nc(-c4ccc(NC(=O)Nc5ccc(C(=O)NN6CCCC6)cc5)cc4)nc32)CC1` (stereo not shown) [Example 307, 4-[({4-[1-(4-methoxycyclohexyl)-4-(8-oxa-3-azabicyclo[3.2.1]oct-3-yl)-1H-pyrazolo[3,4-d]pyrimidin-6-yl]phenyl}carbamoyl)amino]-N-pyrrolidin-1-ylbenzamide], for which the IC50 against Human mTOR (FLAG-TOR) (setting [3]) was 0.145 nM; on PI3K [1] (setting [4]), 404 nM; on PI3K [2] (setting [5]) it was 4960 nM; with prostate line LNCap, < 1 nM; with breast line MDA468, 2 nM.

For `CCn1nc(N2CCCC2)c2c(N3CC4CCC(C3)O4)nc(-c3ccc(NC(=O)NC)cc3)nc21` [Example 347, 1-{4-[1-ethyl-4-(8-oxa-3-azabicyclo[3.2.1]oct-3-yl)-3-pyrrolidin-1-yl-1H-pyrazolo[3,4-d]pyrimidin-6-yl]phenyl}-3-methylurea], the IC50 against Human mTOR (FLAG-TOR) (setting [3]) is 5.6 nM; at PI3K [1] (setting [4]), 1100 nM; at PI3K [2] (setting [5]) it was 7130 nM; in the test with prostate line LNCap, 310 nM; in the test with breast line MDA468 it was 1300 nM.

Consider `O=C(Nc1ccc(-c2nc(N3CC4CCC(C3)O4)c3cnn(C4CCC5(CC4)OCCO5)c3n2)cc1)OCCO` [Example 121, 2-hydroxyethyl {4-[1-(1,4-dioxaspiro[4.5]dec-8-yl)-4-(8-oxa-3-azabicyclo[3.2.1]oct-3-yl)-1H-pyrazolo[3,4-d]pyrimidin-6-yl]phenyl}carbamate], for which the IC50 is 0.5 nM against Human mTOR (FLAG-TOR); 7650 nM on PI3K [1] (PI3 Kinase α); > 10000 nM at PI3K [2] (PI3 Kinase γ); 2 nM in the test with prostate line LNCap; 63 nM in the test on breast line MDA468.

For `COC1CCC(n2ncc3c(N4CC5CCC(C4)O5)nc(-c4ccc(NC(=O)Nc5cccnc5)cc4)nc32)CC1` (stereo not shown) [Example 384, 1-{4-[1-(4-methoxycyclohexyl)-4-(8-oxa-3-azabicyclo[3.2.1]oct-3-yl)-1H-pyrazolo[3,4-d]pyrimidin-6-yl]phenyl}-3-pyridin-3-ylurea], the IC50 came to 0.175 nM against Human mTOR (FLAG-TOR) (setting [3]); 297 nM at PI3K [1] (setting [4]); 2170 nM at PI3K [2] (setting [5]); 2 nM in the test on prostate line LNCap; 22 nM in the test with breast line MDA468.

Consider `CNC(=O)Nc1ccc(-c2nc(N3C[C@@H]4C[C@H]3CO4)c3cnn(CC(F)(F)F)c3n2)cc1` [Example 292, 1-methyl-3-(4-{4-[(1S,4S)-2-oxa-5-azabicyclo[2.2.1]hept-5-yl]-1-(2,2,2-trifluoroethyl)-1H-pyrazolo[3,4-d]pyrimidin-6-yl}phenyl)urea], for which the half-maximal inhibitory concentration (IC50) against Human mTOR (FLAG-TOR) is 5.5 nM; on PI3K [1] (PI3 Kinase α), 2090 nM; on PI3K [2] (PI3 Kinase γ) it was > 10000 nM; with prostate line LNCap, 80 nM; in the test with breast line MDA468 it was 300 nM.

Values taken from US8129371B2, “Thienopyrimidine and pyrazolopyrimidine compounds and their use as mTOR kinase and PI3 kinase inhibitors” (Wyeth LLC, priority 2007, dated 2012).
